These results are taken from US11208387B2, “Macrocyclic broad spectrum antibiotics” (Genentech, Inc., priority 2019, dated 2021).

Assay [1] concerns isolated liver mitochondria. The assay is described as follows: Mitochondrial oxygen consumption rate (OCR) assay. In kind it is biochemical, Sprague-Dawley rats. The following applies: isolated rat liver mitochondria, state 3 (S3) respiration. The text has this:
Male Sprague-Dawley rats (8-10 weeks of age) were euthanized with an overdose of carbon dioxide. The liver was rapidly excised and placed in ice-cold phosphate-buffered saline (PBS) before isolation process. Mitochondria were isolated using the MitoCheck® Mitochondrial Isolation Kit (Cayman Chemical #701010, Ann Arbor, Mich.) according to manufacturer's instructions. In brief, approximately 10-14 grams of liver tissues were finely minced using a pair of scissors, and washed repeatedly with ice-cold PBS, followed by Mito Isolation Buffer. The minced tissues were homogenized with 30 ml Mito Homogenization Buffer in 40 ml dounce homogenizer and a smooth glass grinder. The homogenate was split into two clean 30 ml polycarbonate tubes and centrifuged at 1,000×g, 4° C., for 3 minutes. The supernatant was subjected to further centrifugation at 10,000×g, 4° C., for 10 minutes. The supernatant was discarded and mitochondrial pellet was suspended in Mito Isolation Buffer using a glass stirring rod and stored on ice until use. Protein concentration of mitochondria was determined using a bicinchoninic acid protein assay kit (Thermo Scientific, Waltham, Mass.).
Oxygen consumption was monitored as essentially described by Will et al., “Analysis of mitochondrial function using phosphorescent oxygen-sensitive probes,” Nature Protocols Vol. 1(6) (2006) 2563. Briefly, isolated mitochondria (50 μg mitochondrial proteins/state 3 (S3) of mitochondrial respiration for inhibitor identification, 100 μg/S2 for uncoupler identification) were incubated with compounds in 25 μl of Measurement Buffer (MB: 250 mM sucrose, 15 mM KCl, 1 mM EGTA, 5 mM MgCl2, 30 mM K2HPO4, pH 7.4) including 1% DMSO on ice for 1 hour, then mixed with 25 μl of substrate mixture including an oxygen-sensitive phosphorescent dye (MitoXpress Xtra, Agilent, Santa Clara, Calif.), glutamate (25 mM, G1626, Sigma, St. Louis, Mo.), malate (25 mM, M6413, Sigma), ADP (3.3 mM, A2754, Sigma, only for S3 of mitochondrial respiration), Fatty acid free BSA (0.1%, A0281, Sigma), and a complex II-specific inhibitor TTFA (2 μM, T27006, Sigma for the assessment of complex I-mitochondrial respiration with glutamate/malate) in a black wall/clear bottom 384-well plate. The mixtures were covered with HS mineral oil (Agilent) using the Viaflo 384-channel pipette (Integra, Hudson, N.H.). Oxygen consumption was measured for 30 min at 30° C. using a spectrofluorimeter (FLUOstar Omega, BMG Labtech, Cary, N.C.). In S3, DMSO vehicle control and antimycin A (10 μM) were used to define 0% and 100% inhibition. In S2, DMSO vehicle and FCCP (0.5-1 μM) was used to define 0% and 100% uncoupling, respectively. Area under curve typically in a range of 0-12 min (S3) or 0-24 min (S2) was used for calculations. IC50 or UC50 (uncoupling concentration), a concentration that causes 50% of inhibition or maximal (uncoupling) activation of oxygen consumption, was used to evaluate experimental quality. Data were presented as μM (per 50 μg (S3) or 100 μg (S2) mitochondrial proteins). Compounds with IC50: <100 μM (S3) and/or UC50: <200 μM (S2) were considered as high-risk on mitochondrial toxicity. Compounds with 25-50% changes in inhibition and/or uncoupling were categorized as medium-risk, since compounds with >25% changes are considered as responders.
Toxicity associated with mitochondrial dysfunction has presented a problem for promising potential antibiotics as we as other types of therapeutics. The mitochondrial oxygen consumption rate (OCR) assay is considered a reliable indicator of potential internal organ toxicity issues that may occur with powerful antibiotics. The carboxylate compounds of the invention show unexpected lower toxicity than prior art “glycine nitrile” arylomycin analogs (see, e.g., WO 2018/149419) in the mitochondrial oxygen consumption rate (OCR) assay.

Assay [2] concerns Acinetobacter baumannii ATCC 17978. Kind of assay: Serum MIC, broth micro-dilution. In kind it is cell-based. The settings on record: Acinetobacter baumannii. In short, it runs like this: (§1)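 Plates held at 35 °C for 22 h after adding bacteria to a final OD600 of 0.0005. Medium was a 1:1 mix of mouse serum and cation-adjusted Mueller Hinton II broth. Ten two-fold compound dilutions began at 64, 4, 0.5 or 0.13 μg/mL, per CLSI microdilution.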

For assay [3], the system named is Escherichia coli strain ATCC 25922. Kind of assay: Serum MIC, broth micro-dilution. The following applies: Escherichia coli, read-out: E. coli 25922 Serum MIC. The class given is cell-based. The gist of the method: as §1
In assay [4] the test system is Klebsiella pneumoniae ATCC 700603. Kind of assay: Serum MIC, broth micro-dilution. In kind it is cell-based. The settings on record: Klebsiella pneumoniae. In short, it runs like this: as §1
Assay [5] deals with Pseudomonas aeruginosa PA01. Kind of assay: Serum MIC, broth micro-dilution. The class given is cell-based. The following applies: Pseudomonas aeruginosa, read-out: P. aeruginosa 01 Serum MIC. In short, it runs like this: as §1
[6] abbreviates: ATCC17978, 50% v/v mouse serum in Mueller Hinton II cation adjusted Broth, 35° C., 22 hours, Table 4, read-out: A. baumanii 17978 Serum MIC.
Where [7] appears, read: ATCC17978, 50% v/v mouse serum in Mueller Hinton II cation adjusted Broth, 35° C., 22 hours, Table 5, read-out: Acinetobacter baumanii 17978 Serum MIC.
Where [8] appears, read: ATCC25922, 50% v/v mouse serum in Mueller Hinton II cation adjusted Broth, 35° C., 22 hours, Table 4.
The mark [9] stands for this setting: ATCC700603, 50% v/v mouse serum in Mueller Hinton II cation adjusted Broth, 35° C., 22 hours, Table 4, read-out: K pneumoniae 700603 Serum MIC.
The mark [10] stands for this setting: PA01, 50% v/v mouse serum in Mueller Hinton II cation adjusted Broth, 35° C., 22 hours, Table 4.
The mark [11] stands for this setting: ATCC17978, 22 h, read-out: A. baumanii 17978 Serum MIC.
The mark [12] stands for this setting: ATCC17978, 22 h, read-out: Acinetobacter baumanii 17978 Serum MIC.
[13] abbreviates: ATCC700603, 22 h, read-out: K pneumoniae 700603 Serum MIC.

Values after ≈ are worked out from the molar mass of the structure shown. Read-outs that look alike come from different tables or passages of the source.

Consider `Cc1nc(-c2ccc(C(C)(C)C)cc2)nc(C)c1C(=O)N[C@@H](CCN)C(=O)N(C)[C@@H]1C(=O)N[C@@H](C)C(=O)N[C@H](C(=O)NCC#N)Cc2ccc(O)c(c2)-c2cc1ccc2OCCN` (racemic) [Example 254], for which the IC50 in assay [1] (compounds of Table 1, Table 6) amounted to 20 µM. The MIC stood at 9.3 µM (≈ 8.01 µg/mL) in assay [2] (ATCC17978, 50% v/v mouse serum, compounds of Table 1, Table 7, read-out: A. baumanii 17978 Serum MIC); 0.19 µM (≈ 0.164 µg/mL) in assay [3] (ATCC25922, 50% v/v mouse serum, compounds of Table 1, Table 7); 0.73 µM (≈ 0.629 µg/mL) in assay [4] (ATCC700603, 50% v/v mouse serum, compounds of Table 1, Table 7, read-out: K. pneumoniae 700603 Serum MIC); 13 µM (≈ 11.2 µg/mL) in assay [5] (PA01, 50% v/v mouse serum, compounds of Table 1, Table 7).
`Cc1nc(-c2ccc(C(C)(C)C)cc2)nc(N)c1C(=O)N[C@@H](CNS(N)(=O)=O)C(=O)N(C)[C@@H]1C(=O)N[C@@H](C)C(=O)N[C@H](C(=O)O)Cc2ccc(OC[C@H](O)CN)c(c2)-c2cc1cc(OC[C@H](O)CN)c2O` [Example 2, (8S,11S,14S)-18-hydroxy-11-methyl-14-[methyl-[(2S)-2-[[4-amino-2-(4-tert-butylphenyl)-6-methyl-pyrimidine-5-carbonyl]amino]-3-(sulfamoylamino)-propanoyl]amino]-10,13-dioxo-3,17-bis[(2R)-3-amino-2-hydroxy-propoxy]-9,12-diazatricyclo-[13.3.1.12,6]icosa-1(18),2(20),3,5,15(19), 16-hexaene-8-carboxylic acid] came in with an IC50 in assay [1] (glutamate/malate, Table 3) of 261 µM. The MIC worked out at 11 µM (≈ 11.1 µg/mL) in assay [2] (setting [6]); 11 µM (≈ 11.1 µg/mL) in assay [2] (setting [7]); 0.5 µM (≈ 0.504 µg/mL) in assay [3] (setting [8]); 0.5 µM (≈ 0.504 µg/mL) in assay [4] (setting [9]); 3.3 µM (≈ 3.33 µg/mL) in assay [5] (setting [10]).
The compound `Cc1nc(-c2ccc(C(C)(C)C)cc2)nc(C)c1C(=O)N[C@@H](CNS(N)(=O)=O)C(=O)N(C)[C@@H]1C(=O)N[C@@H](C)C(=O)N[C@H](C(=O)O)Cc2ccc(OC[C@H](O)CN)c(c2)-c2cc1cc(OC[C@H](O)CN)c2O` [Example 7, (8S,11S,14S)-18-hydroxy-11-methyl-14-[methyl-[(2S)-2-[[2-(4-tert-butyl-phenyl)-4,6-dimethyl-pyrimidine-5-carbonyl]amino]-3-(sulfamoylamino)-propanoyl]amino]-10,13-dioxo-3,17-bis[(2R)-3-amino-2-hydroxy-propoxy]-9,12-diazatricyclo-[13.3.1.12,6]icosa-1(18),2(20),3,5,15(19), 16-hexaene-8-carboxylic acid] yielded an IC50 in assay [1] (glutamate/malate, Table 3) of more than 250 µM. For the same compound, the MIC in assay [2] (setting [6]) was 9.3 µM (≈ 9.37 µg/mL); in assay [2] (setting [7]), 9.3 µM (≈ 9.37 µg/mL); in assay [3] (setting [8]), 0.42 µM (≈ 0.423 µg/mL); in assay [4] (setting [9]) it was 0.46 µM (≈ 0.463 µg/mL); in assay [5] (setting [10]) it was 4.3 µM (≈ 4.33 µg/mL).
On to `Cc1nc(-c2ccc(C(C)(C)C)cc2)ncc1C(=O)N[C@@H](CNS(N)(=O)=O)C(=O)N(C)[C@@H]1C(=O)N[C@@H](C)C(=O)N[C@H](C(=O)O)Cc2ccc(OC[C@H](O)CN)c(c2)-c2cc1cc(OC[C@H](O)CN)c2O` [Example 8, (8S,11S,14S)-18-hydroxy-11-methyl-14-[methyl-[(2S)-2-[[2-(4-tert-butyl-phenyl)-4-methyl-pyrimidine-5-carbonyl]amino]-3-(sulfamoylamino)-propanoyl]amino]-10,13-dioxo-3,17-bis[(2R)-3-amino-2-hydroxy-propoxy]-9,12-diazatricyclo-[13.3.1.12,6]icosa-1(18),2(20),3,5,15(19), 16-hexaene-8-carboxylic acid], for which the 50% inhibitory concentration (IC50) in assay [1] (glutamate/malate, Table 3) came out at 28 µM. Also, the MIC in assay [2] (setting [6]) amounted to 16 µM (≈ 15.9 µg/mL); in assay [2] (setting [7]), 16 µM (≈ 15.9 µg/mL); in assay [3] (setting [8]), 0.38 µM (≈ 0.377 µg/mL); in assay [4] (setting [9]), 0.5 µM (≈ 0.497 µg/mL); in assay [5] (setting [10]), 7 µM (≈ 6.95 µg/mL).
Regarding `Cc1nc(-c2ccc(OCCC(C)(C)C)cc2)ncc1C(=O)N[C@@H](CNS(N)(=O)=O)C(=O)N(C)[C@@H]1C(=O)N[C@@H](C)C(=O)N[C@H](C(=O)O)Cc2ccc(OC[C@H](O)CN)c(c2)-c2cc1cc(OC[C@H](O)CN)c2O` [Example 16, (8S,11S,14S)-18-hydroxy-11-methyl-14-[methyl-[(2S)-2-[[2-[4-(3,3-dimethyl-butoxy)phenyl]-4-methyl-pyrimidine-5-carbonyl]amino]-3-(sulfamoylamino)-propanoyl]amino]-10,13-dioxo-3,17-bis[(2R)-3-amino-2-hydroxy-propoxy]-9,12-diazatricyclo-[13.3.1.12,6]icosa-1(18),2(20),3,5,15(19), 16-hexaene-8-carboxylic acid], the IC50 in assay [1] (glutamate/malate, Table 3) is 33 µM. For the same compound, the MIC was 12 µM (≈ 12.4 µg/mL) in assay [2] (setting [11]); 12 µM (≈ 12.4 µg/mL) in assay [2] (setting [12]); 0.44 µM (≈ 0.456 µg/mL) in assay [3] (ATCC25922, 22 h); 0.63 µM (≈ 0.653 µg/mL) in assay [4] (setting [13]); 6 µM (≈ 6.22 µg/mL) in assay [5] (PA01, 22 h).
In turn, `Cc1nc(-c2ccc(OCCC(C)(C)C)cc2)nc(N)c1C(=O)N[C@@H](CCN)C(=O)N(C)[C@@H]1C(=O)N[C@@H](C)C(=O)N[C@H](C(=O)O)Cc2ccc(OC[C@H](O)CN)c(c2)-c2cc1cc(OC[C@H](O)CN)c2O` [Example 18, (8S,11S,14S)-18-hydroxy-11-methyl-14-[methyl-[(2S)-4-amino-2-[[4-amino-2-[4-(3,3-dimethyl-butoxy)phenyl]-6-methyl-pyrimidine-5-carbonyl]amino]-butanoyl]amino]-10,13-dioxo-3,17-bis[(2R)-3-amino-2-hydroxy-propoxy]-9,12-diazatricyclo-[13.3.1.12,6]icosa-1(18),2(20),3,5,15(19), 16-hexaene-8-carboxylic acid] showed an IC50 in assay [1] (glutamate/malate, Table 3) of 119 µM. Besides, the MIC in assay [2] (setting [11]) was found to be 8 µM (≈ 7.9 µg/mL); in assay [2] (setting [12]), 8 µM (≈ 7.9 µg/mL); in assay [3] (ATCC25922, 22 h), 0.25 µM (≈ 0.247 µg/mL); in assay [4] (setting [13]) it was 0.25 µM (≈ 0.247 µg/mL); in assay [5] (PA01, 22 h), 4 µM (≈ 3.95 µg/mL).
